Results on 2 compounds are retold here after patent US20250276029A1, “ANTIBACTERIAL AND ANTIOXIDANT COMPOSITION CONTAINING GRAPE CALLUS CULTURE MEDIUM AS ACTIVE INGREDIENT” (INGR INCORPORATED, priority 2021, published 2025).

Data set [1] is described as follows: DPPH analysis (antioxidant effect). Conditions: 500 μg/ml. As for the experimental part:
DPPH analysis was performed to confirm the antioxidant effect of grape callus culture solution. Specifically, 0.2 mM DPPH (1,1-Diphenyl-2-picryhydrazyl) solution was prepared using 80% methanol, and then 180 μl of DPPH and 20 μl of the sample were well mixed and reacted at room temperature for 10 minutes, and then absorbance was measured with an ELISA reader at 517 nm. On the other hand, the sample was diluted based on epsilon-Viniferin content and treated in a well for comparison with Viniferin. In addition, the control method used DPPH reagent in the dilution solvent of the sample instead of the sample. Ascorbic acid was treated as a positive control.
On the technique in general: The DPPH test is a chemical assay of radical scavenging.

Data set [2] concerns P. acnes 3320 (KCTC 3320). Put plainly: MIC for acne bacteria, P. acnes 3320. It is filed as cell-based, Propionibacterium acnes. The note with it: P. acnes 3320, 72 hours, anaerobic. As for the experimental part:
(§1) To confirm the antibacterial effect of grape callus culture solution on acne bacteria, Propionibacterium acnes (KCTC 3314, KCTC 3320, KCTC 5012) was cultured in RCM (Reinforced Clostridial Medium) at 37° C., anaerobic conditions. MIC is an index for measuring bacteriostatic characteristics of antibacterial substances, and after diluting the grape callus culture solution of the present invention to a concentration between […], the minimum concentration that inhibits the growth of three kinds of P. acnes was examined. Specifically, three kinds of P. acnes cultured in <3-1> were incubated in an incubator at 37° C. for 72 hours under anaerobic conditions in 5 ml of RCM liquid medium. In addition, a master plate was prepared at 8 concentrations by diluting ½ from the highest concentration to DW in 96 well plates. 50 μl of each diluted sample was then transferred to another 96-well plate. […] To measure the MIC, 0 hour OD600 nm was measured with a Microplate Reader. Then, after incubating the 96-well plate in 72-hour 37° C., incubation under anaerobic conditions, measuring OD600 nm for 72 hours with a Microplate Reader, subtracting the 0-hour OD value from the 72-hour OD value, the growth of three P. acnes according to control and sample concentration was compared, and antibacterial activity was confirmed through OD value comparison.

The subject of data set [3] is P. acnes 3314 (KCTC 3314). Put plainly: MIC for acne bacteria, P. acnes 3314. Conditions: P. acnes 3314, 72 hours, anaerobic. It is filed as cell-based, Propionibacterium acnes. As for the experimental part: as §1
The test system of data set [4] is P. acnes 5012 (KCTC 5012). Briefly: MIC for acne bacteria, P. acnes 5012. It is filed as cell-based, Propionibacterium acnes. The note with it: P. acnes 5012, 72 hours, anaerobic. As to the method:
as §1

Data set [5] has as its system P. acnes 3320 (KCTC 3320). Briefly: MBC analysis for acne bacteria, P. acnes 3320. The format is cell-based, Propionibacterium acnes. The note with it: for MBC, concentration of highest growth inhibition effect: P. acnes 3320, 72-hour; for MBC, concentration of highest growth inhibitory effect: P. acnes 3320, 48 hr. As for the experimental part: (§2) To confirm the antibacterial effect of grape callus culture solution on acne bacteria, Propionibacterium acnes (KCTC 3314, KCTC 3320, KCTC 5012) was cultured in RCM (Reinforced Clostridial Medium) at 37° C., anaerobic conditions. The Minimum Bactericidal Concentration (MBC) is an indicator measuring the bactericidal properties of an antibacterial substance, and the grape callus culture extract of the present invention was diluted to concentrations ranging […], and the minimum concentration inhibiting the growth of three strains of P. acnes was determined. Specifically, the minimum bactericidal concentration was measured using a plate measuring the MIC of <3-1>.

In data set [6] the test system is P. acnes 3314 (KCTC 3314). Put plainly: MBC analysis for acne bacteria, P. acnes 3314. Conditions: for MBC, concentration of highest growth inhibition effect: P. acnes 3314, 72-hour; for MBC, concentration of highest growth inhibitory effect: P. acnes 3314, 48 hr. It is filed as cell-based, Propionibacterium acnes. As for the experimental part:
as §2

The subject of data set [7] is P. acnes 5012 (KCTC 5012). Put plainly: MBC analysis for acne bacteria, P. acnes 5012. The note with it: for MBC, concentration of highest growth inhibition effect: P. acnes 5012, 72-hour; for MBC, concentration of highest growth inhibitory effect: P. acnes 5012, 48 hr. The format is cell-based, Propionibacterium acnes. As for the experimental part: as §2
Data set [8] deals with MNT-1 (human melanoma cell). Briefly: MTT assay cytotoxicity, MNT-1 cells. It is filed as cell-based. The note with it: 24 h. As for the experimental part:
(§3) MTT assay was performed using MNT-1, Raw264.7 cells to confirm the cytotoxicity of grape callus cultures, epsilon-Viniferin and delta-Viniferin. Specifically, Raw264.7 (murine macrophage) was incubated at 37° C., 5% CO2 in DMEM (High glucose) medium with 10% FBS and 1% gentamicine added, and MNT-1 (human melanoma cell) was incubated at 37° C., 5% CO2 in DMEM/MEM (High glucose) medium with 20% FBS and 1% gentamicine added. MNT-1 (10^4 cell/well) and Raw264.7 (2×10^4 cell/well) were each incubated in 96 wells, the samples were diluted with medium and treated in each well. After 24 hours, the MTT solution was treated at a concentration of 100 μg/mL and reacted at 37° C., 5% CO2 incubator for 1 hour. All cultures were then removed, 100 μl of acid-isopropanol was added to each well, and absorbance was measured with an ELISA reader at 570 nm. In addition, the sample was diluted based on epsilon-Viniferin content and treated in a well for comparison with Viniferin.
A general note: Formazan colour is commonly taken as a measure of viable cells.

Data set [9] relates to Raw264.7 (murine macrophage). Put plainly: MTT assay cytotoxicity, Raw264.7 cells. The format is cell-based. Conditions: mouse, 24 h. As for the experimental part:
as §3

Another data set relates to P. acnes 3320. Put plainly: Disc diffusion test. It is filed as cell-based, Propionibacterium acnes. The note with it: for clear zone diameter, 1: column 1; for clear zone diameter, 2: column 2. As for the experimental part: The disc diffusion test is an antibacterial agent sensitivity test method of bacteria, and if there is an antibacterial effect, a clear zone is formed around the disk paper, and the antibacterial ability can be measured through the degree of clear zone formation. Specifically, P. acnes 3320 was incubated in 5 ml of RCM liquid medium in an incubator at 37° C. for 72 hours under anaerobic conditions. Then, the bacteria diluted with 5×10^5 1×10^6 were moistened with a cotton swab and evenly smeared on RCM agar medium. The disk paper was placed on an agar plate, the disk paper was moistened with a sample of the stock solution, and then incubated in a 72-hour 37° C. incubator under anaerobic conditions, and then the clear zone size was measured using a Vernier Caliper.
In general terms: In agar diffusion tests the substance spreads into inoculated agar from a disc or well.

For `Oc1ccc(C2Oc3ccc(/C=C/c4cc(O)cc(O)c4)cc3C2c2cc(O)cc(O)c2)cc1` (stereo not drawn) [delta-Viniferin, trans-δ-Viniferin], the “radical scavenging activity (DPPH) compared to the control group” value in data set [1] is “approximately 25%”. Moreover, the “MIC, average concentration that inhibits growth” value in data set [2], in data set [3] and in data set [4] was “did not show growth inhibition” in each case. The “MBC, concentration of highest growth inhibition effect” value in data set [5], in data set [6] and in [7] was “did not show growth inhibition” in each case. Moreover, the “MBC, concentration of highest growth inhibitory effect” value in [5], in [6] and in data set [7] was “did not show growth inhibition” in each case.

On to `Oc1ccc(/C=C/c2cc(O)cc3c2C(c2cc(O)cc(O)c2)C(c2ccc(O)cc2)O3)cc1` (stereo not drawn) [epsilon-Viniferin, trans-ε-viniferin], for which the “concentration showing no cytotoxicity (MTT)” value in data set [8] and in data set [9] was at most 20000 ng/mL each time. In addition, in [1], the “radical scavenging activity (DPPH) compared to the control group” value is “approximately 25%”. Further, the “MIC, average concentration that inhibits growth” value in data set [2], in [3] and in [4] was “did not show growth inhibition” throughout. The “MBC, concentration of highest growth inhibition effect” value in data set [5], in data set [6] and in [7] was “did not show growth inhibition” throughout. Besides, the “MBC, concentration of highest growth inhibitory effect” value in data set [5], in data set [6] and in data set [7] was “did not show growth inhibition” each time. In addition, the “clear zone diameter, Average” value in the data set with P. acnes 3320 (ε-viniferin 5 μg) and with P. acnes 3320 (ε-viniferin 10 μg) was 0 mm in each case. Moreover, the “clear zone diameter, 1” value in the data set on P. acnes 3320 (ε-viniferin 5 μg) and with P. acnes 3320 (ε-viniferin 10 μg) was 0 mm throughout. The “clear zone diameter, 2” value with P. acnes 3320 (ε-viniferin 5 μg) and in the data set with P. acnes 3320 (ε-viniferin 10 μg) was 0 mm in each case.
